In patent US20190078052A1, “ENGINEERED ADHESIVE SUBSTRATES FOR HIGH-THROUGHPUT CELL ISOLATION AND SEPARATION” (ARIZONA BOARD OF REGENTS ON BEHALF OF ARIZONA STATE …, priority 2016, published 2019):
Entries after “also recorded” stand apart in the source; their conditions may differ.

What was measured:
T24 3D-DTMs [1] = test: Transfer of dormant T24 3D-DTMs from AM3 to AM1 Amikagel: cell escape, filopodia, microcolony formation; assay type: cell-based; conditions: for formation of micrometastasis-like nodules / microcolonies: 100 μM pre-treated, 15 days after transfer to AM1
Method: 1 ml of amikagel AM1, AM2 and AM3 pre-gel solutions were filtered through a 0.20 μm filter and 40 μL of the filtrate was added to each well of a 96 well plate. The plates were sealed with paraffin tape (Parafilm, Menasha, Wis.) and incubated in an oven maintained at 40° C. for 7.5 hours. After gelation, the surfaces of Amikagels were washed with 150 μL of Nanopure® water for 12 hours, in order to remove traces of unreacted monomers.
All 3DTM (3D tumor microenvironments) experiments were set up by liquid overlay culture (2) of cells on top of Amikagel surface in a total volume of […] media/well; either 100,000 cancer cells alone (single culture) or 50,000 stromal cells followed by 50,000 cancer cells (co-culture) were incubated, unless indicated otherwise in specific cases. After 48 hours of incubation, 50% of the media in the wells was replaced with fresh media i.e. DMEM/RPMI+10% (v/v) FBS+1% (v/v) Pen-Strep at regular intervals of 48 hours. Care was taken to withdraw and add the media slowly so as to not perturb 3DTM formation. Fresh media was added every 48 hours following cell plating. For 3DTM generation on 24 well plates, 400 μL of pre-gel volume was used instead of 40 μl. Different co-culture 3DTM systems are represented as fibroblast/stromal cells-epithelial cells (e.g. NIH3T3-T24, WPMY-1-T24) to accurately indicate the sequence of their addition. In most cases, 3DTMs were formed 5-7 days following culture on Amikagels.
T24 3DTMs were first formed on AM3, and transferred to AM1s on the seventh day following initial cell seeding, in order to investigate the role of chemo-mechanical properties of Amikagels on 3DTM fate, and migration of metastatic cells out of the 3DTM spheroid. Upon transfer, cells from 3DTMs were monitored for cell spreading and motility on the gel for an additional 7 days. After 7 days, cell cycle analysis and N-cadherin analysis was carried out on the all 3DTMs. Long-term experiments were also carried out where 3D-DTMs were continuously monitored for 15 days after their transfer from AM3 gel to AM1 gel.

T24 3D-DTMs [2] = test: Cell cycle analysis of T24 3D-DTMs by propidium iodide flow cytometry; assay type: cell-based
Method: Following five days of incubation on AM3, 3DTMs of T24 cells with NIH3T3 murine fibroblast cells were harvested for cell cycle analysis. Four or five individual 3DTMs of T24 cells alone or UMUC3 cells alone were harvested on the 7th day after seeding on Amikagels, collected in an eppendorf tube. 50 μL of 5 mg/ml collagenase was added to 3DTMs prepared using fibroblast helper cells for 30 minutes at 37° C. in order to facilitate their disassembly by gentle pipetting. Single cell 3DTMs were disassembled using manual pipetting.
Disassembled 3DTM cells were then centrifuged at 200 r.c.f. in order to collect the cell pellet. The pellet was resuspended in a solution of 1% v/v 1× Triton-X, 5% (v/v) fetal bovine serum (FBS), 50 μg/mL propidium iodide, and 0.006-0.01 units/mL ribonuclease A. After incubation for 30 minutes on ice, cells were analyzed for their cell cycle profiles using flow cytometry; the propidium iodide (PI) signal was detected using an excitation at 535 nm and emission at 617 nm.
Voltages of the FL2-A, SSC and FSC channels were adjusted in order to obtain best representative peaks for alignment of 2n (diploidy−G0/G1) peak to 200 intensity units during flow cytometry. FL2A (FL2-Area) provides the information regarding the pulse area of the emitted fluorescence signal (total cell fluorescence) whereas SSC and FSC provide the information regarding the […] light from the sample. FSC is a measure of diffracted light from the sample proportional to cell surface area or size and SSC is proportional to cell granularity or internal complexity.

T24 3D-DTMs [3] = test: Viability of T24 3D-DTMs after docetaxel treatment; assay type: cell-based; conditions: following treatment
phospho-AKT = conditions: cited from earlier work
phospho-FAK = conditions: cited from earlier work
cdc42 = cdc42 (Homo sapiens, UniProt P60953); conditions: other cancer cell lines; cited from earlier work
cdc42, sequence (P60953 whole entry, species assumed): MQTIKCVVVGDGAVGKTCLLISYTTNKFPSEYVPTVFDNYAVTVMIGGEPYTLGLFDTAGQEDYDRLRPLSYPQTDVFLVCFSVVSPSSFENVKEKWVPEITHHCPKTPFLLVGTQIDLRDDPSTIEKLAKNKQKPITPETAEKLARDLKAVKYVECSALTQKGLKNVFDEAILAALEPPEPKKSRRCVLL

CC(=O)O[C@@]12CO[C@@H]1C[C@H](O)[C@@]1(C)C(=O)[C@H](O)C3=C(C)[C@@H](OC(=O)[C@H](O)[C@@H](NC(=O)OC(C)(C)C)c4ccccc4)C[C@@](O)([C@@H](OC(=O)c4ccccc4)[C@H]21)C3(C)C [Docetaxel, docetaxel]
cellular escape from the mother 3D-DTM (T24 3D-DTMs [1]; 12.5 μM-100 μM): significantly reduced
formation of micrometastasis-like nodules / microcolonies (T24 3D-DTMs [1]): significantly reduced cell escape and microcolony formation
formation of micrometastasis-like nodules / microcolonies (T24 3D-DTMs [1]; listed as docetaxel): drastically reduced
cells escaping the mother spheroid (T24 3D-DTMs [1]; 100 μM pre-treatment on AM3, 48 hours after transfer to AM1): significantly lesser number of cells escaped
filopodia formation on cells shed on AM1 (T24 3D-DTMs [1]; after treatment of T24 3D-DTMs): did not show filopodia formation; also recorded: not observed
cells in the G2/M phase, treated vs untreated 3D-DTM (T24 3D-DTMs [2]; 96 hours on AM3): No significant differences
cells in the sub-G0/G1 phase of the cell cycle, treated mother 3D-DTM (T24 3D-DTMs [2]; 96 hours on AM3): modest increase
cell cycle profile of treated T24 3D-DTMs (T24 3D-DTMs [2]; following treatment): dormant cell cycle profile
viability of treated T24 3D-DTMs (T24 3D-DTMs [3]): remained viable
reduction of phospho-AKT expression compared to untreated T24 cells (phospho-AKT): ~41%
reduction of phospho-FAK expression compared to untreated T24 cells (phospho-FAK): ~34%
inhibition of cdc42 (cdc42): effectively inhibit
